System: not given
Test: not given
Settings: not given

SMILES	melting point
Cc1nc2c3c(c(CO)cn2c1C)CCC(c1ccccc1)C3 (stereo not shown) [Example 10, (2,3-Dimethyl-9-phenyl-7,8,9,10-tetrahydro-imidazo[2,1-a]isoquinolin-6-yl)-methanol]	290 to 292 °C
CCOC(=O)c1cn2c(C)c(C)nc2c2c1CCC(c1ccccc1)C2 (stereo not shown) [Example 1, 2,3-Dimethyl-9-phenyl-7,8,9,10-tetrahydro-imidazo[2,1-a]isoquinoline-6-carboxylic acid ethyl ester]	165 to 167 °C
Cc1nc2c3c(c(C(=O)O)cn2c1C)CCC(c1ccccc1)C3 (stereo not shown) [Example 2, 2,3-Dimethyl-9-phenyl-7,8,9,10-tetrahydro-imidazo[2,1-a]isoquinoline-6-carboxylic acid]	343 to 345 °C (dec.)
CNC(=O)c1cn2c(C)c(C)nc2c2c1CCC(c1ccccc1)C2 (stereo not shown) [Example 8, 2,3-Dimethyl-9-phenyl-7,8,9,10-tetrahydro-imidazo[2,1-a]isoquinoline-6-carboxylic acid methylamide]	266 to 268 °C

System: pentagastrin-stimulated acid secretion of the perfused rat stomach
Test: Secretion-inhibiting action on the perfused rat stomach (pentagastrin-stimulated acid secretion)
Format: in vivo
Settings: anesthetized CD rat, female; dose 3 μmol/kg i.d. (intraduodenal); pentagastrin 1 μg/kg i.v. continuous infusion
Text: Testing of the Secretion-Inhibiting Action on the Perfused Rat Stomach
In Table A which follows, the influence of the compounds according to the invention on the pentagastrin-stimulated acid secretion of the perfused rat stomach after intraduodenal administration in vivo is shown.
The abdomen anesthetized rats (CD rat, female, 200-250 g; 1.5 g/kg i.m. urethane) was opened after tracheotomy by a median upper abdominal incision and a PVC catheter was fixed transorally in the esophagus and another via the pylorus such that the ends of the tubes just projected into the gastric lumen. The catheter leading from the pylorus led outward into the right abdominal wall through a side opening.
After thorough rinsing (about 50-100 ml), warm (37° C.) physiological NaCl solution was continuously passed through the stomach (0.5 ml/min, pH 6.8-6.9; Braun-Unita I). The pH (pH meter 632, glass electrode EA 147; φ=5 mm, Metrohm) and, by titration with a freshly prepared 0.01N NaOH solution to pH 7 (Dosimat 665 Metrohm), the secreted HCl were determined in the effluent in each case collected at an interval of 15 minutes.
The gastric secretion was stimulated by continuous infusion of 1 μg/kg (=1.65 ml/h) of i.v. pentagastrin (left femoral vein) about 30 min after the end of the operation (i.e. after determination of 2 preliminary fractions). The substances to be tested were administered intraduodenally in a 2.5 ml/kg liquid volume 60 min after the start of the continuous pentagastrin infusion.
The body temperature of the animals was kept at a constant 37.8-38° C. by infrared irradiation and heat pads (automatic, stepless control by means of a rectal temperature sensor).

SMILES	Inhibition of acid secretion
COCCNC(=O)c1cn2c(C)c(C)nc2c2c1CCC(c1ccccc1)C2 (stereo not shown) [Example 6, 2,3-Dimethyl-9-phenyl-7,8,9,10-tetrahydro-imidazo[2,1-a]isoquinoline-6-carboxylic acid (2-methoxy-ethyl)-amide]	>40%
COCc1cn2c(C)c(C)nc2c2c1CCC(c1ccccc1)C2 (stereo not shown) [Example 11, 6-Methoxymethyl-2,3-dimethyl-9-phenyl-7,8,9,10-tetrahydro-imidazo[2,1]isoquinoline]	>40%
Cc1nc2c3c(c(C(=O)N(C)C)cn2c1C)CCC(c1ccccc1)C3 (stereo not shown) [Example 3, 2,3-Dimethyl-9-phenyl-7,8,9,10-tetrahydro-imidazo[2,1-a]isoquinoline-6-carboxylic acid dimethylamide]	>40%
Cc1nc2c3c(c(C(=O)N4CCOCC4)cn2c1C)CCC(c1ccccc1)C3 (stereo not shown) [Example 7, (2,3-Dimethyl-9-phenyl-7,8,9,10-tetrahydro-imidazo[2,1-a]isoquinolin-6-yl)-morpholin-4-yl-methanone]	>40%
CNC(=O)c1cn2c(C)c(C)nc2c2c1CCC(c1ccccc1)C2 (stereo not shown) [Example 8, 2,3-Dimethyl-9-phenyl-7,8,9,10-tetrahydro-imidazo[2,1-a]isoquinoline-6-carboxylic acid methylamide]	>40%
Cc1nc2c3c(c(C(=O)N4CCCC4)cn2c1C)CCC(c1ccccc1)C3 (stereo not shown) [Example 4, (2,3-Dimethyl-9-phenyl-7,8,9,10-tetrahydro-imidazo[2,1-a]isoquinolin-6-yl)-pyrrolidin-1-yl-methanone]	>40%
